Patent US20060069132A1, “Azolecarboxamide herbicides” (priority 2004, published 2006)

Experiments:
barnyardgrass [1] = test: Test B flooded paddy test; format: in vivo, Echinochloa crus-galli; conditions: 1000 g ai/ha, visual rating, scale 0 to 100 (0 no effect, 100 complete control), 13 to 15 days
Summary of the method: (§1)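 Postemergence plants were sprayed with formulated test chemicals at 2 to 18 cm height (1- to 4-leaf stage); paddy species were grown to the 2-leaf stage. After 13 to 15 days in a greenhouse, injury was rated visually against untreated controls on a 0–100 scale (0 = no effect, 100 = complete control).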

wild oat = test: Test B postemergence herbicide test; format: in vivo, Avena fatua; conditions: scale 0 (no effect) to 100 (complete control); for Plant response rating, Oat, Wild: Postemergence, visual rating after 13 to 15 days; for Oat, Wild plant response rating: postemergence, visual rating
Summary of the method: (§2)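 Scale 0–100: zero equals no visible effect, 100 complete control, judged by eye relative to controls. Timing: 13 to 15 days in greenhouse post-treatment. Growth stage at spraying: two leaves (paddy) or one to four leaves, 2–18 cm (postemergence).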

cocklebur = test: Test B pre-/postemergence herbicide test; format: in vivo, Xanthium strumarium; conditions: for Cocklebur plant response rating: postemergence, visual rating
Summary of the method: (§3)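 Seeds were planted and treated preemergence with compounds formulated in a non-phytotoxic solvent mixture containing surfactant, while plants at the 1- to 4-leaf stage (2 to 18 cm) received postemergence sprays. Flooded paddy plants were grown to the 2-leaf stage. After 13 to 15 days in a greenhouse, injury was visually rated 0–100 against untreated controls.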

large crabgrass = test: Test B pre-/postemergence herbicide test; format: in vivo, Digitaria sanguinalis; conditions: for Crabgrass, Large plant response rating: postemergence, visual rating
Summary of the method: (§4)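 Evaluation is visual, comparing treated with control plants on a scale where 0 means no effect and 100 means full control. Treatments were preemergence, or postemergence on seedlings 2–18 cm tall, and held 13–15 days in the greenhouse.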

ducksalad = test: Test B flooded paddy test; format: in vivo, Heteranthera limosa; conditions: 1000 g ai/ha, visual rating, scale 0 to 100 (0 no effect, 100 complete control), 13 to 15 days
Summary of the method: as §1

blackgrass = test: Test B postemergence herbicide test; format: in vivo, Alopecurus myosuroides; conditions: scale 0 (no effect) to 100 (complete control); for Plant response rating, Blackgrass: Postemergence, visual rating after 13 to 15 days; for Blackgrass plant response rating: postemergence, visual rating
Summary of the method: as §1

rice = test: Test B flooded paddy test; format: in vivo, Oryza sativa; conditions: 1000 g ai/ha, visual rating, scale 0 to 100 (0 no effect, 100 complete control), 13 to 15 days
Summary of the method: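 Each value is a visual 0–100 response rating taken against controls 13 to 15 days after treatment in the greenhouse. Plants received formulated chemical postemergence at the 1- to 4-leaf stage or, in flooded paddy, at the 2-leaf stage.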

[2] = test system: small flower umbrella sedge; test: Test B flooded paddy test; format: in vivo, Cyperus difformis; conditions: 1000 g ai/ha, visual rating, scale 0 to 100 (0 no effect, 100 complete control), 13 to 15 days
Summary of the method: as §1

morningglory = test: Test B pre-/postemergence herbicide test; format: in vivo, Ipomoea coccinea; conditions: preemergence
Summary of the method: as §3

giant foxtail = test: Test B pre-/postemergence herbicide test; format: in vivo, Setaria faberi; conditions: for Foxtail, Giant plant response rating: postemergence, visual rating
Summary of the method: as §4

pigweed = test: Test B pre-/postemergence herbicide test; format: in vivo, Amaranthus retroflexus; conditions: for Pigweed plant response rating: postemergence, visual rating
Summary of the method: as §4

velvetleaf = test: Test B pre-/postemergence herbicide test; format: in vivo, Abutilon theophrasti; conditions: for Velvetleaf plant response rating: postemergence, visual rating
Summary of the method: as §4

corn = test: Test B pre-/postemergence herbicide test; format: in vivo, Zea mays; conditions: preemergence
Summary of the method: as §4

barnyardgrass [3] = test: Test B pre-/postemergence herbicide test; format: in vivo, Echinochloa crus-galli; conditions: for Barnyardgrass plant response rating: postemergence, visual rating
Summary of the method: as §3

Surinam grass = test: Test B pre-/postemergence herbicide test; format: in vivo, Urochloa decumbens; conditions: for Surinam Grass plant response rating: postemergence, visual rating
Summary of the method: as §4

wheat = test: Test B postemergence herbicide test; format: in vivo, Triticum aestivum; set-up: key to Wheat plant response rating: 0 = no effect, 100 = complete control; conditions: scale 0 (no effect) to 100 (complete control); for Plant response rating, Wheat: Postemergence, visual rating after 13 to 15 days; for Wheat plant response rating: postemergence, visual rating
Summary of the method: as §2

[4] = 500 g ai/ha, visual rating 0-100, 0 no effect, 100 complete control, preemergence
[5] = Postemergence, 500 g ai/ha, visual rating after 13 to 15 days, scale 0 (no effect) to 100 (complete control)
[6] = 125 g ai/ha, scale 0 (no effect) to 100 (complete control)
[7] = preemergence, 125 g ai/ha, 0 to 100 scale, 0 is no effect, 100 is complete control
[8] = 125 g ai/ha, 0 to 100 scale, 0 is no effect, 100 is complete control
[9] = 500 g ai/ha, visual rating 0-100, 0 no effect, 100 complete control
[10] = 500 g ai/ha, scale 0 (no effect) to 100 (complete control)

C=Cn1nc(C(C)(C)C)cc1C(=O)Nc1cccc(C(C)=NO)c1 [Compound 114]
10: Plant response rating, Oat, Wild (wild oat; 500 g ai/ha) | Oat, Wild plant response rating (wild oat; 125 g ai/ha) | Plant response rating, Cocklebur (cocklebur; [4]) | Plant response rating, Cocklebur (cocklebur; [7]) | Blackgrass plant response rating (blackgrass; 125 g ai/ha) | Plant response rating, Morningglory (morningglory; [8]) | Plant response rating, Corn (corn; [9]) | Surinam Grass plant response rating (Surinam grass; [6])
30: Crabgrass, Large plant response rating (large crabgrass; [6]) | Plant response rating, Blackgrass (blackgrass; 500 g ai/ha) | Plant response rating, Foxtail, Giant (giant foxtail; [5]) | Foxtail, Giant plant response rating (giant foxtail; [6]) | Plant response rating, Barnyardgrass (barnyardgrass [3]; [5]) | Plant response rating, Surinam Grass (Surinam grass; [4])
70: Barnyardgrass plant response rating (barnyardgrass [1])
100: Plant response rating, Crabgrass, Large (large crabgrass; [4]) | Plant response rating, Pigweed (pigweed; [4]) | Plant response rating, Pigweed (pigweed; [5])
80: Cocklebur plant response rating (cocklebur; [6]) | Ducksalad plant response rating (ducksalad) | Plant response rating, Pigweed (pigweed; [7]) | Plant response rating, Barnyardgrass (barnyardgrass [3]; [4])
0: Plant response rating, Corn (corn; [8])
20: Barnyardgrass plant response rating (barnyardgrass [3]; [6]) | Plant response rating, Surinam Grass (Surinam grass; [5]) | Plant response rating, Surinam Grass (Surinam grass; [7]) | Plant response rating, Wheat (wheat; 500 g ai/ha) | Wheat plant response rating (wheat; 125 g ai/ha)
90: Plant response rating, Cocklebur (cocklebur; [5]) | Plant response rating, Crabgrass, Large (large crabgrass; [7]) | Sedge, Umbrella plant response rating [2] | Plant response rating, Foxtail, Giant (giant foxtail; [4]) | Pigweed plant response rating (pigweed; [6])
50: Rice plant response rating (rice) | Plant response rating, Foxtail, Giant (giant foxtail; [7]) | Velvetleaf plant response rating (velvetleaf; [6]) | Plant response rating, Barnyardgrass (barnyardgrass [3]; [7])
40: Plant response rating, Crabgrass, Large (large crabgrass; [5]) | Plant response rating, Velvetleaf (velvetleaf; [7])
60: Plant response rating, Velvetleaf (velvetleaf; [4]) | Plant response rating, Velvetleaf (velvetleaf; [5])

CC(=NO)c1cccc(NC(=O)c2cc(C(C)(C)C)nn2CCF)c1 [Compound 115]
100: Plant response rating, Crabgrass, Large (large crabgrass; [4]) | Plant response rating, Foxtail, Giant (giant foxtail; [4]) | Plant response rating, Pigweed (pigweed; [4]) | Plant response rating, Pigweed (pigweed; [5]) | Plant response rating, Velvetleaf (velvetleaf; [4]) | Plant response rating, Barnyardgrass (barnyardgrass [3]; [4])
80: Cocklebur plant response rating (cocklebur; [6]) | Plant response rating, Foxtail, Giant (giant foxtail; [7]) | Pigweed plant response rating (pigweed; [6]) | Plant response rating, Pigweed (pigweed; [7]) | Plant response rating, Velvetleaf (velvetleaf; [5]) | Plant response rating, Velvetleaf (velvetleaf; [7]) | Plant response rating, Barnyardgrass (barnyardgrass [3]; [7])
20: Plant response rating, Cocklebur (cocklebur; [7]) | Plant response rating, Blackgrass (blackgrass; 500 g ai/ha) | Foxtail, Giant plant response rating (giant foxtail; [6])
40: Plant response rating, Cocklebur (cocklebur; [4])
90: Barnyardgrass plant response rating (barnyardgrass [1]) | Plant response rating, Cocklebur (cocklebur; [5]) | Plant response rating, Crabgrass, Large (large crabgrass; [7]) | Ducksalad plant response rating (ducksalad) | Sedge, Umbrella plant response rating [2] | Plant response rating, Morningglory (morningglory; [9])
60: Rice plant response rating (rice) | Velvetleaf plant response rating (velvetleaf; [6]) | Plant response rating, Surinam Grass (Surinam grass; [5]) | Surinam Grass plant response rating (Surinam grass; [6])
50: Plant response rating, Barnyardgrass (barnyardgrass [3]; [5])
70: Plant response rating, Surinam Grass (Surinam grass; [4]) | Plant response rating, Surinam Grass (Surinam grass; [7])
30: Plant response rating, Oat, Wild (wild oat; 500 g ai/ha) | Plant response rating, Crabgrass, Large (large crabgrass; [5]) | Plant response rating, Morningglory (morningglory; [8]) | Plant response rating, Foxtail, Giant (giant foxtail; [5]) | Plant response rating, Corn (corn; [9]) | Plant response rating, Wheat (wheat; 500 g ai/ha) | Wheat plant response rating (wheat; 125 g ai/ha)
10: Oat, Wild plant response rating (wild oat; 125 g ai/ha) | Crabgrass, Large plant response rating (large crabgrass; [6]) | Blackgrass plant response rating (blackgrass; 125 g ai/ha) | Barnyardgrass plant response rating (barnyardgrass [3]; [6])
0: Plant response rating, Corn (corn; [8])

C=Cn1nc(C(C)(C)C)cc1C(=O)Nc1cccc(C(C)=O)c1 [Compound 127]
80: Cocklebur plant response rating (cocklebur; [10])
60: Pigweed plant response rating (pigweed; [10]) | Plant response rating, Surinam Grass (Surinam grass; [4])
70: Plant response rating, Foxtail, Giant (giant foxtail; [4]) | Plant response rating, Pigweed (pigweed; [4]) | Plant response rating, Barnyardgrass (barnyardgrass [3]; [4])
30: Crabgrass, Large plant response rating (large crabgrass; [10]) | Foxtail, Giant plant response rating (giant foxtail; [10]) | Plant response rating, Foxtail, Giant (giant foxtail; [7]) | Pigweed plant response rating (pigweed; [6])
10: Oat, Wild plant response rating (wild oat; 125 g ai/ha) | Oat, Wild plant response rating (wild oat; 500 g ai/ha) | Cocklebur plant response rating (cocklebur; [6]) | Plant response rating, Cocklebur (cocklebur; [7]) | Blackgrass plant response rating (blackgrass; 125 g ai/ha) | Blackgrass plant response rating (blackgrass; 500 g ai/ha) | Velvetleaf plant response rating (velvetleaf; [10]) | Plant response rating, Velvetleaf (velvetleaf; [7]) | Barnyardgrass plant response rating (barnyardgrass [3]; [6]) | Surinam Grass plant response rating (Surinam grass; [6]) | Surinam Grass plant response rating (Surinam grass; [10]) | Wheat plant response rating (wheat; 500 g ai/ha)
0: Plant response rating, Morningglory (morningglory; [8]) | Velvetleaf plant response rating (velvetleaf; [6]) | Plant response rating, Corn (corn; [9]) | Plant response rating, Corn (corn; [8]) | Wheat plant response rating (wheat; 125 g ai/ha)
40: Plant response rating, Pigweed (pigweed; [7])
20: Plant response rating, Cocklebur (cocklebur; [4]) | Crabgrass, Large plant response rating (large crabgrass; [6]) | Foxtail, Giant plant response rating (giant foxtail; [6]) | Plant response rating, Velvetleaf (velvetleaf; [4]) | Barnyardgrass plant response rating (barnyardgrass [3]; [10]) | Plant response rating, Barnyardgrass (barnyardgrass [3]; [7])
100: Plant response rating, Crabgrass, Large (large crabgrass; [4]) | Sedge, Umbrella plant response rating [2]
50: Barnyardgrass plant response rating (barnyardgrass [1]) | Rice plant response rating (rice) | Plant response rating, Surinam Grass (Surinam grass; [7])
90: Plant response rating, Crabgrass, Large (large crabgrass; [7]) | Ducksalad plant response rating (ducksalad)
